For 1 compound, EC50 and MIC results are on record in patent US11332485B2, “Penicillin-binding protein inhibitors” (priority 2017, dated 2022).

Test [1] concerns the target T1, PBP3 from Escherichia coli (Escherichia coli, UniProt P0AD68).
T1 construct: made in house
The test is described as follows: Fluorescence polarization competition binding assay with Bocillin-FL. In a few lines: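 Fluorescence polarization competition assay with Bocillin-FL at 0.1 μM final and purified E. coli PBP3 at 1.5 μM final in 50 mM Hepes pH 8.0, 300 mM NaCl, 5% glycerol. Inhibitor preincubated with PBP3 for 30 min before probe addition; FP then read continuously for 60 min. Potency reported in binned categories.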

The target in test [2] is T1, PBP3 from Escherichia coli. The test is described as follows: Competition binding assay using Bodipy-FL boronic acid probe (Example 95). The settings on record: PBP3 3 μM, read-out: E. coli K12 PBP3 Potency. As for the experimental part: PBP3 from Escherichia coli was cloned and purified as described previously (King, D. T, et al., ACS Infectious Diseases 2015, 1, 175-184). To establish assay conditions for competition binding, an enzyme titration/saturation binding experiment was performed. […] FP was measured immediately upon addition of PBP3 (Ex, Em), using a Cytation3 (BioTek) microplate reader and measured continuously for 60 minutes. […] The competition binding assay was validated using the beta-lactam ampicillin, with Bocillin-FL at a final concentration of 0.1 μM, PBP3 at a final concentration of 1.5 μM and concentrations of ampicillin from 0-1000 μM. […] Binding assays for boronic acid PBP inhibitors were performed in an identical fashion. Representative results are shown in Table 3, where A represents a potency of >500 μM, B represents a potency between 30 μM and 500 μM inclusive, and C represents a potency of <30 μM. NT=Not Tested.
The method described in Example II was adapted to use a Bodipy-labeled boronic acid PBP inhibitor (Example 13 or Example 95) to assess PBP3 potency of boronic acid PBP inhibitors. The method is identical to that described in Example II for the Bocillin-FL competition binding assay, with the following exceptions: PBP3 from Escherichia coli is used at a final concentration of 3 μM. […]

The test system of a further test is S. aureus ATCC 29213. The test is described as follows: Broth microdilution MIC assay. It counts as cell-based. The settings on record: Staphylococcus aureus, ATCC29213; broth microdilution, 16-20 hours at 37° C.; read-out: S. aureus 29213 MIC. The procedure, abridged: (§1)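 Growth inhibition is measured by CLSI broth microdilution. Log-phase bacteria (5×10^5 CFU/mL starting density) are incubated with 2-fold compound dilutions in cation-supplemented MH broth for 16-20 hours at 37° C, and the MIC is scored visually.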

Test [3] relates to hyper-permeable E. coli 901C. The test can be described thus: Broth microdilution MIC assay. The test is classed as cell-based. The settings on record: Escherichia coli, read-out: E. coli 901C MIC. The procedure, abridged:
as §1

In a further test the test system is E. coli DH5α/pLBII. The test can be described thus: Broth microdilution MIC assay, empty vector control strain. The settings on record: Escherichia coli, read-out: E. coli DH5α/pLBII Microbiological Activity (MIC). It counts as cell-based. The procedure, abridged:
(§2)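 CLSI broth microdilution in cation-supplemented Mueller-Hinton broth, 2-fold compound dilutions, 5×10^5 CFU/mL inoculum, 16-20 h at 37° C, MIC read visually as lowest concentration without growth. E. coli DH5α carries CTX-M15 on pLBII under Lac promoter, or empty pLBII as control.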

The subject of test [4] is E. coli DH5α/pLBII-CTX-M15. The test is described as follows: Broth microdilution MIC assay, engineered strain producing CTX-M15. To be noted: Escherichia coli, read-out: E. coli DH5α/pLBII-CTX-M15 Microbiological Activity (MIC). It counts as cell-based, Escherichia coli. In a few lines: as §2

pEC50: −log10 of the molar value. Bounds are passed on as bounds.

T1 sequence (P0AD68 1-577): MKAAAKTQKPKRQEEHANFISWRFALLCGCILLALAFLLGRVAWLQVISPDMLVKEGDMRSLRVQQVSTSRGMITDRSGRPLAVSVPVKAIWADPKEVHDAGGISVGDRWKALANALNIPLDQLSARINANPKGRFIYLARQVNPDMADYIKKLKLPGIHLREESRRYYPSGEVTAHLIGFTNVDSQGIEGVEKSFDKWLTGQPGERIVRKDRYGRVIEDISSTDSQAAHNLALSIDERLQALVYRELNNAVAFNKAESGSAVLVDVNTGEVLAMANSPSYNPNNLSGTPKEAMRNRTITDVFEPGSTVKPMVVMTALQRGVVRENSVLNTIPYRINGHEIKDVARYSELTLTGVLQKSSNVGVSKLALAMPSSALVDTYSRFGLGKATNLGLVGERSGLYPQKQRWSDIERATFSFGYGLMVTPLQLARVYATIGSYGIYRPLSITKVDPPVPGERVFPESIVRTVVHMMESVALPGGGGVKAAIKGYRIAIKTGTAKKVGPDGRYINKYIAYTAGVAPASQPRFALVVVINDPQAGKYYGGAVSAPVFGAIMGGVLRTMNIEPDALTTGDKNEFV

In the case of `CCN1CCN(C(=O)NC(C(=O)N[C@H]2Cc3cccc(C(=O)O)c3OB2O)c2csc(N)n2)C(=O)C1=O` (stereo partly drawn) [Example 12, (3R)-3-(2-(2-aminothiazol-4-yl)-2-(4-ethyl-2,3-dioxopiperazine-1-carboxamido)acetamido)-2-hydroxy-3,4-dihydro-2H-benzo[e][1,2]oxaborinine-8-carboxylic acid], the pEC50 in test [1] was above 4.52; in test [2], above 5.00. Moreover, the MIC in the test on S. aureus ATCC 29213 is 64 to 128 µg/mL; in test [3] it was below 64 µg/mL; in the test with E. coli DH5α/pLBII it was 8 to 16 µg/mL; in test [4] it was 8 to 16 µg/mL.
